Laboratory results as given in ChEMBL document CHEMBL4725427, “Synthesis and SAR Studies of 1H-Pyrrolo[2,3-b]pyridine-2-carboxamides as Phosphodiesterase 4B (PDE4B) Inhibitors” (ACS Med Chem Lett, 2020).

Tests used:
[1] = Protein binding in human plasma assessed as unbound fraction; assay type: ADME, cell-free
[2] = target: Muscarinic acetylcholine receptor M2 (Homo sapiens) (UniProt P08172); test: Inhibition of muscarinic M2 receptor (unknown origin) relative to control; settings: concentration not given here
[3] = target: Delta-type opioid receptor (Homo sapiens) (UniProt P41143); test: Inhibition of DOR receptor (unknown origin) relative to control; settings: concentration not given here
[4] = target: Histamine H3 receptor (Homo sapiens) (UniProt Q9Y5N1); test: Inhibition of histamine H3 receptor (unknown origin) relative to control; settings: concentration not given here
[5] = target: 3',5'-cyclic-AMP phosphodiesterase 7B (Homo sapiens) (UniProt Q9NP56); test: Inhibition of recombinant human N-terminal GST-tagged C-terminal His-tagged PDE7B (109 to end residues) expressed in baculovirus infected Sf9 cells at 10 uM by radioligand assay relative to control
[6] = target: D(1B) dopamine receptor (Homo sapiens) (UniProt P21918); test: Inhibition of D5 (unknown origin) relative to control; settings: concentration not given here
[7] = Metabolic stability in human Hepatocyte assessed as half life; assay type: ADME, tissue-based; settings: hepatocytes
[8] = target: Alpha-1B adrenergic receptor (Homo sapiens) (UniProt P35368); test: Inhibition of adrenoceptor alpha 1B (unknown origin) relative to control; settings: concentration not given here
[9] = target: D(2) dopamine receptor (Homo sapiens) (UniProt P14416); test: Inhibition of D2 (unknown origin) relative to control; settings: concentration not given here
[10] = target: 5-hydroxytryptamine receptor 5A (Homo sapiens) (UniProt P47898); test: Inhibition of 5HT5A (unknown origin) relative to control; settings: concentration not given here
[11] = Metabolic stability in human liver microsomes assessed as intrinsic clearance; assay type: ADME, Microsome; settings: read-out: CLH
[12] = target: High affinity cGMP-specific 3',5'-cyclic phosphodiesterase 9A (Homo sapiens) (UniProt O76083); test: Inhibition of recombinant human N-terminal GST-tagged PDE9A2 expressed in baculovirus infected Sf9 cells at 10 uM by radioligand assay relative to control
[13] = target: cAMP and cAMP-inhibited cGMP 3',5'-cyclic phosphodiesterase 10A (Homo sapiens) (UniProt Q9Y233); test: Inhibition of recombinant human N-terminal GST-tagged PDE10A2 expressed in baculovirus infected Sf9 cells at 10 uM by radioligand assay relative to control
[14] = target: D(4) dopamine receptor (Homo sapiens) (UniProt P21917); test: Inhibition of D4 (unknown origin) relative to control; settings: concentration not given here
[15] = target: Muscarinic acetylcholine receptor M5 (Homo sapiens) (UniProt P08912); test: Inhibition of muscarinic M5 receptor (unknown origin) relative to control; settings: concentration not given here
[16] = target: Alpha-2C adrenergic receptor (Homo sapiens) (UniProt P18825); test: Inhibition of adrenoceptor alpha 2C (unknown origin) relative to control; settings: concentration not given here
[17] = target: Dual 3',5'-cyclic-AMP and -GMP phosphodiesterase 11A (Homo sapiens) (UniProt Q9HCR9); test: Inhibition of recombinant human N-terminal GST-tagged PDE11A4 expressed in baculovirus infected Sf9 cells at 10 uM by radioligand assay relative to control
[18] = target: Alpha-2A adrenergic receptor (Homo sapiens) (UniProt P08913); test: Inhibition of adrenoceptor alpha 2A (unknown origin) relative to control; settings: concentration not given here
[19] = target: T1, Sigma intracellular receptor 2 (Homo sapiens, UniProt Q5BJF2); test: Inhibition of sigma2 receptor (unknown origin)
[20] = Metabolic stability in mouse liver microsomes assessed as intrinsic clearance; assay type: ADME, Microsome; settings: read-out: CLH
[21] = target: Dual specificity calcium/calmodulin-dependent 3',5'-cyclic nucleotide phosphodiesterase 1B (Homo sapiens) (UniProt Q01064); test: Inhibition of recombinant human N-terminal GST-tagged PDE1B expressed in baculovirus infected Sf9 cells at 10 uM by radioligand assay relative to control
[22] = target: Muscarinic acetylcholine receptor M3 (Homo sapiens) (UniProt P20309); test: Inhibition of muscarinic M3 receptor (unknown origin) relative to control; settings: concentration not given here
[23] = target: Alpha-1D adrenergic receptor (Homo sapiens) (UniProt P25100); test: Inhibition of adrenoceptor alpha 1D (unknown origin) relative to control; settings: concentration not given here
[24] = target: D(3) dopamine receptor (Homo sapiens) (UniProt P35462); test: Inhibition of D3 (unknown origin) relative to control; settings: concentration not given here
[25] = target: 5-hydroxytryptamine receptor 2C (Homo sapiens, UniProt P28335); test: Inhibition of 5HT2C (unknown origin)
[26] = target: Alpha-1A adrenergic receptor (Homo sapiens) (UniProt P35348); test: Inhibition of adrenoceptor alpha 1A (unknown origin) relative to control; settings: concentration not given here
[27] = target: Dual specificity calcium/calmodulin-dependent 3',5'-cyclic nucleotide phosphodiesterase 1C (Homo sapiens) (UniProt Q14123); test: Inhibition of recombinant human N-terminal GST-tagged PDE1C expressed in baculovirus infected Sf9 cells at 10 uM by radioligand assay relative to control
[28] = target: High affinity 3',5'-cyclic-AMP phosphodiesterase 7A (Homo sapiens) (UniProt Q13946); test: Inhibition of recombinant human N-terminal GST-tagged PDE7A1 (122 to end residues) expressed in baculovirus infected Sf9 cells at 10 uM by radioligand assay relative to control
[29] = target: Mu-type opioid receptor (Homo sapiens) (UniProt P35372); test: Inhibition of MOR (unknown origin) relative to control; settings: concentration not given here
[30] = Effect on TNFalpha production in C57BL/6 mouse bone marrow derived Macrophage at 1 to 10 uM incubated for 30 mins by ELISA; settings: 0.5 h
[31] = target: Muscarinic acetylcholine receptor M1 (Homo sapiens) (UniProt P11229); test: Inhibition of muscarinic M1 receptor (unknown origin) relative to control; settings: concentration not given here
[32] = target: 5-hydroxytryptamine receptor 1D (Homo sapiens) (UniProt P28221); test: Inhibition of 5HT1D (unknown origin) relative to control; settings: concentration not given here
[33] = target: Histamine H1 receptor (Homo sapiens) (UniProt P35367); test: Inhibition of histamine H1 receptor (unknown origin) relative to control; settings: concentration not given here
[34] = target: 5-hydroxytryptamine receptor 2A (Homo sapiens) (UniProt P28223); test: Inhibition of 5HT2A (unknown origin) relative to control; settings: concentration not given here
[35] = target: Sodium-dependent dopamine transporter (Homo sapiens) (UniProt Q01959); test: Inhibition of DAT receptor (unknown origin) relative to control; settings: concentration not given here
[36] = target: 5-hydroxytryptamine receptor 1E (Homo sapiens) (UniProt P28566); test: Inhibition of 5HT1E (unknown origin) relative to control; settings: concentration not given here
[37] = target: cGMP-dependent 3',5'-cyclic phosphodiesterase (Homo sapiens) (UniProt O00408); test: Inhibition of recombinant human N-terminal FLAG-tagged PDE2A1 (2 to 941 residues) expressed in baculovirus infected Sf9 cells at 10 uM by radioligand assay relative to control
Rattus norvegicus = species on record: Rattus norvegicus; test: Inhibition of rat brain BZP relative to control; assay type: tissue-based; settings: dose or concentration not given here
[38] = target: T1, Sigma intracellular receptor 2; test: Inhibition of sigma2 receptor (unknown origin) relative to control; settings: concentration not given here
[39] = target: Translocator protein TSPO (Homo sapiens) (UniProt P30536); test: Inhibition of PBR receptor (unknown origin) relative to control; settings: concentration not given here
[40] = target: Histamine H2 receptor (Homo sapiens) (UniProt P25021); test: Inhibition of histamine H2 receptor (unknown origin) relative to control; settings: concentration not given here
Sequence of Histamine H2 receptor (Homo sapiens) (P25021 whole entry): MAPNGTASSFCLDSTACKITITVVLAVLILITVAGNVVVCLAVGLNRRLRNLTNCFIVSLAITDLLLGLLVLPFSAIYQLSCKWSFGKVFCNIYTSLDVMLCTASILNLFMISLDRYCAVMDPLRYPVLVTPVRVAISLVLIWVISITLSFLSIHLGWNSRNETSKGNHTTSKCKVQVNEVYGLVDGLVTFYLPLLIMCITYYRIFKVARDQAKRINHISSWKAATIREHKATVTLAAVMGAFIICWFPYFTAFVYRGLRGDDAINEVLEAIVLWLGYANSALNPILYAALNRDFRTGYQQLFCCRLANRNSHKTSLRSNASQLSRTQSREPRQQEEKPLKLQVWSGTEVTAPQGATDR

T1 sequence (Q5BJF2 whole entry): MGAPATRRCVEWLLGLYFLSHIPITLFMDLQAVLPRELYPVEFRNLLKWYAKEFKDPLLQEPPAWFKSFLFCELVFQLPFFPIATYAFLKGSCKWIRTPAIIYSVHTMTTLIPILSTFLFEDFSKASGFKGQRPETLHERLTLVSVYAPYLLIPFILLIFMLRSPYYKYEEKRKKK
Sequence of High affinity 3',5'-cyclic-AMP phosphodiesterase 7A (Homo sapiens) (Q13946 whole entry): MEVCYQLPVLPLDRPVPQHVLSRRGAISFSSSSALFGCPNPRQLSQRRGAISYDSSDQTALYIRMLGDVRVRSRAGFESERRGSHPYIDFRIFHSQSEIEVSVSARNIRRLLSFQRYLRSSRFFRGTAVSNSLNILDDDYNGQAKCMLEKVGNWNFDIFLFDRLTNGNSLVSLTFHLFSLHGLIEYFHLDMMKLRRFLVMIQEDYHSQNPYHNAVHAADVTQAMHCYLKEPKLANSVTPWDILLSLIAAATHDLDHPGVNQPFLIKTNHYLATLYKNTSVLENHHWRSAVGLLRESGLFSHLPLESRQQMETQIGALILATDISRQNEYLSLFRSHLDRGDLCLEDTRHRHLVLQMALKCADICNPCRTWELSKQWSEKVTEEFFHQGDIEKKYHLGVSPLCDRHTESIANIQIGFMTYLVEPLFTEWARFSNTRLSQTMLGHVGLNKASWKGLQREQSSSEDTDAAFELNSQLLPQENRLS
Sequence of 5-hydroxytryptamine receptor 1E (Homo sapiens) (P28566 whole entry, the tested form may be a part): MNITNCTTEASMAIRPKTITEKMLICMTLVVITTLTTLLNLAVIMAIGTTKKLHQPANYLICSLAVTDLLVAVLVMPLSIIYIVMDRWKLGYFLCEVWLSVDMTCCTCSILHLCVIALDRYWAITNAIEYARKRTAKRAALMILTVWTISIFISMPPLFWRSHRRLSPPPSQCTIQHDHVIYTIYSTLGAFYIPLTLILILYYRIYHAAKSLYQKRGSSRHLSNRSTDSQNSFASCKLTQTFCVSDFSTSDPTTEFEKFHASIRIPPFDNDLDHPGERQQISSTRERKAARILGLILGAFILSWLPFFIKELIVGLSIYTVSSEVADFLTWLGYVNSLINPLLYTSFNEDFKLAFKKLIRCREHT
Sequence of Delta-type opioid receptor (Homo sapiens) (P41143 whole entry): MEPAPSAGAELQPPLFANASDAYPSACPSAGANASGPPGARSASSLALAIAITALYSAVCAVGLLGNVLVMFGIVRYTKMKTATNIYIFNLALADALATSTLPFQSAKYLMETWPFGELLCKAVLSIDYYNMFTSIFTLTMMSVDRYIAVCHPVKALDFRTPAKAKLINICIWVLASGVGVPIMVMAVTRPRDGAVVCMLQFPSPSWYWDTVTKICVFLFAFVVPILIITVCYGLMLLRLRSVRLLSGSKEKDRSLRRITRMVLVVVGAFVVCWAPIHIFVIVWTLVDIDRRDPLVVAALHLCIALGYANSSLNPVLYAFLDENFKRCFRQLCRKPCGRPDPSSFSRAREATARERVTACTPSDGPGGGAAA
Sequence of D(1B) dopamine receptor (Homo sapiens) (P21918 whole entry): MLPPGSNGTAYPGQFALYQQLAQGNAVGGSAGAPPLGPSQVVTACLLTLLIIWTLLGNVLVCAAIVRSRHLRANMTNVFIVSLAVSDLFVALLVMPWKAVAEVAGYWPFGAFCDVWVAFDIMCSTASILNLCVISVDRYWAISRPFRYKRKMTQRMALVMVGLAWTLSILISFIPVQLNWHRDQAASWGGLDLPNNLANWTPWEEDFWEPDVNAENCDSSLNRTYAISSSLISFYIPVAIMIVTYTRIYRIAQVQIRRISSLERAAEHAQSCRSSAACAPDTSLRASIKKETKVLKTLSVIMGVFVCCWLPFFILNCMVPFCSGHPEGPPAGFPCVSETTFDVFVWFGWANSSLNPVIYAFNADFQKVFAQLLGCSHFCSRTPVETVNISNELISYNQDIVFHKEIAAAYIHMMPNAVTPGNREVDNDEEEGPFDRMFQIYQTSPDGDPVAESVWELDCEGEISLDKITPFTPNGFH
Sequence of Histamine H3 receptor (Homo sapiens) (Q9Y5N1 whole entry): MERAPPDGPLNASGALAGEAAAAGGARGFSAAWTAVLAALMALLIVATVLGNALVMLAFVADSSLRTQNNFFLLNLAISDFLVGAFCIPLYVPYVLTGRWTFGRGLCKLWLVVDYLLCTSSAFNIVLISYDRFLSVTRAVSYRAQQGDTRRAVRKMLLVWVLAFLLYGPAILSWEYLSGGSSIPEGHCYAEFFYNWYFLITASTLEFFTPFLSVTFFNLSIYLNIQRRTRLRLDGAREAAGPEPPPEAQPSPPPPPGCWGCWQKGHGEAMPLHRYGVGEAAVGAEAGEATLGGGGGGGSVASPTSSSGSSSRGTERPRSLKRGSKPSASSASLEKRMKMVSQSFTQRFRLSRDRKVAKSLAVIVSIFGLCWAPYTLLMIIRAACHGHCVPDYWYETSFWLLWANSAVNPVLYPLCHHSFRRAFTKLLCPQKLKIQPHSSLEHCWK
Sequence of 5-hydroxytryptamine receptor 5A (Homo sapiens) (P47898 whole entry): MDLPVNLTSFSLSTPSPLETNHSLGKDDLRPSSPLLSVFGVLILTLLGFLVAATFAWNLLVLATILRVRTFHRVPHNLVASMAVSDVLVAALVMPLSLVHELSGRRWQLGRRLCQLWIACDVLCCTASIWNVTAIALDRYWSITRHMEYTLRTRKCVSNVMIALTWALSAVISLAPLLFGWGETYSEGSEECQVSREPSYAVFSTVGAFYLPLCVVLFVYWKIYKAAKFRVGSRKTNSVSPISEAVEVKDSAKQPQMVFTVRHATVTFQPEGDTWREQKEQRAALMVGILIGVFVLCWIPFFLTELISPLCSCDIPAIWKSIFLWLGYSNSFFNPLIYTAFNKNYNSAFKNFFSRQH
Sequence of High affinity cGMP-specific 3',5'-cyclic phosphodiesterase 9A (Homo sapiens) (O76083 whole entry): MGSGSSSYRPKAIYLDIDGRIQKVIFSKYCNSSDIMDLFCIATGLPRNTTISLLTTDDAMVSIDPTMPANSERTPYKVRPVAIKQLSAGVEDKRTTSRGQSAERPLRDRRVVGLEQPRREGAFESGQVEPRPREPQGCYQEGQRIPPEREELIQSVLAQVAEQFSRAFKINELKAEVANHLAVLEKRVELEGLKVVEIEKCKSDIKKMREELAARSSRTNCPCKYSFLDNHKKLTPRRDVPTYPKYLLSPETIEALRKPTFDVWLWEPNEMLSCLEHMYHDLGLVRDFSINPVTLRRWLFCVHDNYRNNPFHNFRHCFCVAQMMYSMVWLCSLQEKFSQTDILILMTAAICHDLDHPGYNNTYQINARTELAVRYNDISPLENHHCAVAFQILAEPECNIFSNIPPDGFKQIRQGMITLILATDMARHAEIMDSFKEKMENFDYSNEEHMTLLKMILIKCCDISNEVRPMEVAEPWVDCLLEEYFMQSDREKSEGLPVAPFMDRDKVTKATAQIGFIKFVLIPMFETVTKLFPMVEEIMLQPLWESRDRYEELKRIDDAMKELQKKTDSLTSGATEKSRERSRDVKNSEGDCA
Sequence of Alpha-1B adrenergic receptor (Homo sapiens) (P35368 whole entry): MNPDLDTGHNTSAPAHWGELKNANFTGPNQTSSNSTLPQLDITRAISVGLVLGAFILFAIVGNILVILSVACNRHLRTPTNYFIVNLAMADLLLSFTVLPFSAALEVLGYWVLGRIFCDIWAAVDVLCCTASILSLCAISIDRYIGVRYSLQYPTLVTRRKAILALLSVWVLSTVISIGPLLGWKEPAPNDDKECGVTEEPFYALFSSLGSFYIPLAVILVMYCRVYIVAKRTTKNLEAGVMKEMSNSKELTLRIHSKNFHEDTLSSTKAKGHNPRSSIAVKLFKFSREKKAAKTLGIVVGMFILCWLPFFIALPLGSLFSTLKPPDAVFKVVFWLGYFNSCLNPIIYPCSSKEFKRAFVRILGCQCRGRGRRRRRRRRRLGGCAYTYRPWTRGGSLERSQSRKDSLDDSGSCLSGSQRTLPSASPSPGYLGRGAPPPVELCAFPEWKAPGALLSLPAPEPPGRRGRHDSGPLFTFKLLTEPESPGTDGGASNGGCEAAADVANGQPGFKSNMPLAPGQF
Sequence of Alpha-2C adrenergic receptor (Homo sapiens) (P18825 whole entry): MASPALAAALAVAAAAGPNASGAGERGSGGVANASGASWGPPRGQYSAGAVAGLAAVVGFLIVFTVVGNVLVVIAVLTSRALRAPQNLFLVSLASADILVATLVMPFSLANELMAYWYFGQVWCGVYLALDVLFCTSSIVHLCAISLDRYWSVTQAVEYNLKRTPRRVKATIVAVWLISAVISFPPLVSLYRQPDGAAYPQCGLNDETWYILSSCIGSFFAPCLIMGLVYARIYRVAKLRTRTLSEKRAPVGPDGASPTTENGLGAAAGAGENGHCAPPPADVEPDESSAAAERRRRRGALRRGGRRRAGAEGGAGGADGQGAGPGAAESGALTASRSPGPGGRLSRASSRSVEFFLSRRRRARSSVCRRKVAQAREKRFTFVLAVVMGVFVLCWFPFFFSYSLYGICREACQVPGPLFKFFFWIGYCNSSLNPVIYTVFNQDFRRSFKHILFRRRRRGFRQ
Sequence of Translocator protein TSPO (Homo sapiens) (P30536 whole entry, looked up): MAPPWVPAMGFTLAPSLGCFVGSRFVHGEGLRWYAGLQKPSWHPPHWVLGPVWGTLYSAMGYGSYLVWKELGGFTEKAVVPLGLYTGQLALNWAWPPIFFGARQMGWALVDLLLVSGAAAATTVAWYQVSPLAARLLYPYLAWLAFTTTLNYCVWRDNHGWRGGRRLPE

Structure (SMILES): O=C(c1nc2cccnc2n1-c1ccc(Cl)c(Cl)c1)N1CC(F)(F)C1
- fraction unbound [1]: 0.038
- inhibition [2]: < 50%
- inhibition [3]: < 50%
- inhibition [4]: < 50%
- inhibition [5]: < 50%
- inhibition [6]: < 50%
- half-life [7]: 49.4 min
- inhibition [8]: < 50%
- inhibition [9]: < 50%
- inhibition [10]: < 50%
- CLint scaled [11]: 5.83 L/h/kg
- inhibition [12]: < 50%
- inhibition [13]: < 50%
- inhibition [14]: < 50%
- inhibition [15]: < 50%
- inhibition [16]: < 50%
- inhibition [17]: < 50%
- inhibition [18]: < 50%
- IC50 [19]: 7.8 µM
- CLint scaled [20]: 6 L/h/kg
- inhibition [21]: < 50%
- inhibition [22]: < 50%
- inhibition [23]: < 50%
- inhibition [24]: < 50%
- IC50 [25]: > 10 µM
- inhibition [26]: < 50%
- inhibition [27]: < 50%
- inhibition [28]: < 50%
- inhibition [29]: < 50%
- Activity [30]: Non-Toxic
- inhibition [31]: < 50%
- inhibition [32]: < 50%
- inhibition [33]: < 50%
- inhibition [34]: < 50%
- inhibition [35]: < 50%
- inhibition [36]: < 50%
- inhibition [37]: < 50%
- inhibition (Rattus norvegicus): < 50%
- inhibition [38]: 70%
- inhibition [39]: < 50%
- inhibition [40]: < 50%
